Test results: patent US4244970A, “Method of treating inflammation” (Forsyth Dental Infirmary for Children, priority 1979, dated 1981)

Target: prostaglandin synthetase (Ovis aries, UniProt P05979)
Test: Prostaglandin synthetase inhibition, sheep vesicular gland microsomal preparation (oxygen electrode)
Format: biochemical
Details: sheep vesicular gland microsomes; 0.1 M Tris HCl pH 8.0; inhibitor added 1 minute before arachidonate; read-out: [I]50, concentration of an inhibitor that reduced prostaglandin synthesis by 50%
Method: Prostaglandin synthetase activity was determined by following oxygen tension in a closed reaction chamber using a Clark-type oxygen electrode. For each assay 2.9 ml of 0.1 M Tris HCl buffer, pH 8.0, 10 ul of 0.2 M phenol, and 50 ul of enzyme suspension (2.5 mg microsomal preparation) were added to the reaction chamber. Ten ul of inhibitor in ethanol was added 1 minute prior to initiation of the reaction. The reaction was initiated by addition of 10 ul of 3.6 mM arachidonate solution. The concentration of an inhibitor that reduced prostaglandin synthesis by 50% ([I]50) was determined from plots of activity vs log concentration of inhibitor.

prostaglandin synthetase, sequence (P05979 25-600): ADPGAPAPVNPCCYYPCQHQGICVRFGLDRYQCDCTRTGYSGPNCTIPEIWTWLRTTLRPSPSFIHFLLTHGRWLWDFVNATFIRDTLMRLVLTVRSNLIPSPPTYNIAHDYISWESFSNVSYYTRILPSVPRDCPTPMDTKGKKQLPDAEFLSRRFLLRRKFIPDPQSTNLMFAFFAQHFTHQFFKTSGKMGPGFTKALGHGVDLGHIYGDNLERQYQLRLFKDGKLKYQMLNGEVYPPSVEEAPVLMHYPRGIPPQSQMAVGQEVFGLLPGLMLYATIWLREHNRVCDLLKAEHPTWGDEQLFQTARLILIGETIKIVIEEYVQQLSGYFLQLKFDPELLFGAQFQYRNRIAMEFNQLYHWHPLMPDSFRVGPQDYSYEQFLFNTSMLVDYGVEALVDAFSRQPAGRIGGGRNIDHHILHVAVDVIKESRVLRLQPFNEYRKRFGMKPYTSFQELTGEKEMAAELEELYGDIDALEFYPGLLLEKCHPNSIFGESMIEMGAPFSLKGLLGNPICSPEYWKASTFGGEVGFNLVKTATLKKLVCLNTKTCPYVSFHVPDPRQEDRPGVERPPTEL

IC50: 3.8 µM
Compound: O=C(c1ccccc1)c1ccccc1O [2-hydroxybenzophenone]
